From patent US20020094522A1, “Means and methods for monitoring non-nucleoside reverse transcriptase inhibitor antiretroviral therapy and guiding therapeutic decisions in the treatment of HIV/AIDS” (priority 2000, published 2002)
Entries after “also recorded” stand apart in the source; their conditions may differ.

Columns and labels:
K103N-Y188L-RTV = experiment: Phenotypic susceptibility assay, K103N-Y188L-RTV; format: cell-based, HIV-1; settings: site directed mutant
Method: (§1) The resistance test vectors containing a functional luciferase gene cassette were constructed and host cells were transfected with the resistance test vector DNA. The resistant test vectors contained patient-derived reverse transcriptase and protease sequences that were either susceptible or resistant to the antiretroviral agents, such as nucleoside reverse transcriptase inhibitors, non-nucleoside reverse transcriptase inhibitors and protease inhibitors. […] The IC50 values were determined by plotting percent drug inhibition vs. log10 drug concentration.
(§2) Host cells were seeded in 10-cm-diameter dishes and were transfected several days after plating with resistance test vector plasmid DNA and the envelope expression vector. […] HIV capsid protein (p24) levels in the harvested cell culture media were determined by an EIA method as described by the manufacturer (SIAC; Frederick, Md.). […] The inhibitory effect of the drug was determined using the following equation: […]
(§3) The mutations Y188L, L100I and K103N were introduced alone and in combinationn into resistance test vectors using the mega-primer method for site-directed mutagenesis (Sakar and Sommar, Ibid.). […] We determined the pattern of phenotypic susceptibility to the NNRTIs, delavirdine, nevlrapine and efavirenz, in all 6 vectors.

[1] = test system: Tyr181Cys (Y181C) mutation variant; settings: Y181C variant selected during nevirapine monotherapy; cited from earlier work
L100I-K103N-RTV = experiment: Phenotypic susceptibility assay, L100I-K103N-RTV; format: cell-based, HIV-1; settings: site directed mutant
Method: as §1, §2, §3

[2] = test system: RTV-268 (patient sample 97-268; P236L); experiment: Phenotypic susceptibility assay, RTV-268; format: cell-based, HIV-1; settings: RTV-268 / patient 268
Excerpt: (§4) The resistance test vectors containing a functional luciferase gene cassette were constructed and host cells were transfected with the resistance test vector DNA. The resistant test vectors contained patient-derived reverse transcriptase and protease sequences that were either susceptible or resistant to the antiretroviral agents, such as nucleoside reverse transcriptase inhibitors, non-nucleoside reverse transcriptase inhibitors and protease inhibitors. The resistance test vector viral particles produced by transfecting the resistance test vector DNA into host cells, either in the presence or absence of protease inhibitors, were used to infect target host cells grown either in the absence of NRTI or NNRTI or in the presence of increasing concentrations of the drug. The amount of luciferase activity produced in infected target host cells in the presence of drug was compared to the amount of luciferase produced in infected target host cells in the absence of drug. Drug resistance was measured as the amount of drug required to inhibit by 50% the luciferase activity detected in the absence of drug (inhibitory concentration 50%, IC50). The IC50 values were determined by plotting percent drug inhibition vs. log10 drug concentration.
(§5) Host cells were seeded in 10-cm-diameter dishes and were transfected several days after plating with resistance test vector plasmid DNA and the envelope expression vector. Transfections were performed using a calcium-phosphate precipitation procedure. The cell culture media containing the DNA precipitate was replaced with fresh medium, from one to 24 hours, after transfection. Cell culture media containing resistance test vector viral particles was harvested one to four days after transfection and was passed through a […] filter before being stored at −80° C. HIV capsid protein (p24) levels in the harvested cell culture media were determined by an EIA method as described by the manufacturer (SIAC; Frederick, Md.). Before infection, target cells (293 and 293/T) were plated in cell culture media. Control infections were performed using cell culture media from mock transfections (no DNA) or transfections containing the resistance test vector plasmid DNA without the envelope expression plasmid. One to three or more days after infection the media was removed and cell lysis buffer (Promega) was added to each well. […] The inhibitory effect of the drug was determined using the following equation: […]
(§6) where RLUluc [drug] is the relative light unit of luciferase activity in infected cells in the presence of drug and RLUluc is the Relative Light Unit of luciferase activity in infected cells in the absence of drug. IC50 values were obtained from the sigmoidal curves that were generated from the data by plotting the percent inhibition of luciferase activity vs. the log10 drug concentration.
A resistance test vector was constructed as described in Example 1 from a patient sample designated 97-268. […] Isolation of viral RNA and RT/PCR was used to generate a patient derived segment that comprised viral sequences coding for all of PR and amino acids 1-313 of RT. The patient derived segment was inserted into a indicator gene viral vector to generate a resistance test vector designated RTV-268. RTV-268 was then tested using the phenotypic susceptibility assay to determine accurately and quantitatively the level of susceptibility to a panel of anti-retroviral drugs. […] An IC50 was determined for each drug tested. Susceptibility of the patient virus to each drug was examined and compared to the susceptibility of a reference virus. […] The sample was examined further for genotypic changes associated with the pattern of susceptibility.

[3] = test system: patient 487 virus (RT M184V, K103N); experiment: Phenotypic susceptibility assay, patient 487; format: cell-based, HIV; settings: patient 487, FIG. 4
Excerpt: as §4, with “The amount of luciferase activity produced in infected target host cells in the presence of drug was compared to the amount of luciferase produced in infected target host cells in the absence of drug. Drug resistance was measured as the amount of drug required to inhibit by 50% the luciferase activity detected in the absence of drug (inhibitory concentration 50%, IC50).” left out
as §2

[4] = test system: RTV-757 (patient sample 98-757); experiment: Phenotypic susceptibility assay, RTV-757; format: cell-based, HIV-1; settings: RTV-757, same patient after additional 8 weeks of treatment
Method: Transfections were performed using a calcium-phosphate precipitation procedure. […] Cell lysates were assayed for luciferase activity (FIG. 3).
The drug inhibition curves are shown in (FIG. 3).
A resistance test vector was constructed as described in Example 1 from a patient sample designated 98-1033. […] Isolation of viral RNA and RT/PCR was used to generate a patient derived segment that comprised viral sequences coding for all of PR and aa 1-313 of RT. The PDS was inserted into an indicator gene viral vector to generate resistance test vectors designated RTV-1033 and RTV-757. RTV-1033 and RTV-757 were then tested in a phenotypic assay to determine accurately and quantitatively the level of susceptibility to a panel of anti-retroviral drugs. […] An IC50 was determined for the resistance test vector pool for each drug tested. The pattern of susceptibility to all of the drugs tested was examined and compared to known patterns of susceptibility.

L100I-K103N-Y188L-RTV = experiment: Phenotypic susceptibility assay, L100I-K103N-Y188L-RTV; format: cell-based, HIV-1; settings: site directed mutant
Method: as §1, §2, §3

[5] = test system: Y188H-RTV (HIV reverse transcriptase Y188H)
Excerpt: as §4, §5, §6

[6] = test system: Y181C-RTV (HIV reverse transcriptase Y181C); experiment: Phenotypic susceptibility assay, Y181C-RTV; format: cell-based, HIV-1
Excerpt: as §4, with “The amount of luciferase activity produced in infected target host cells in the presence of drug was compared to the amount of luciferase produced in infected target host cells in the absence of drug. Drug resistance was measured as the amount of drug required to inhibit by 50% the luciferase activity detected in the absence of drug (inhibitory concentration 50%, IC50).” left out
as §2

Row | SMILES | fold loss of susceptibility compared to wild type control RTV (K103N-Y188L-RTV) | reduction in sensitivity [1] [fold] | fold loss of susceptibility compared to wild type control RTV (L100I-K103N-RTV) [fold] | susceptibility/resistance compared to reference virus [2] | susceptibility/resistance profile [3] | fold decrease in susceptibility (IC50) [4] | fold loss of susceptibility compared to wild type control RTV (L100I-K103N-Y188L-RTV) | fold loss of susceptibility compared to wild type control RTV [5] [fold] | fold loss of susceptibility compared to wild type control RTV ([6]; Y181C-RTV, site directed mutant) [fold] | fold loss of susceptibility compared to wild type control RTV ([6]; {}) [fold]
1 | Cc1ccnc2c1NC(=O)c1cccnc1N2C1CC1 [nevirapine] | greater than 800 fold | 100 | 70 | no change in nevirapine susceptibility; also recorded: nevirapine susceptibility was the same as wild type | increased resistance | greater than 800 fold | greater than 800 fold | 3.5 |  | 
2 | CC(C)Nc1cccnc1N1CCN(C(=O)c2cc3cc(NS(C)(=O)=O)ccc3[nH]2)CC1 [delavirdine] |  |  |  | resistant to delavirdine; also recorded: phenotypic resistance to delavirdine | increased resistance | 10 fold |  |  |  | 
3 | O=C1Nc2ccc(Cl)cc2[C@@](C#CC2CC2)(C(F)(F)F)O1 [efavirenz] |  |  |  |  |  |  |  |  | 4 | 3
